Measured values from ChEMBL document CHEMBL1139767, “Dragon method for finding novel tyrosinase inhibitors: Biosilico identification and experimental in vitro assays” (Eur J Med Chem, 2007).

The compounds below were run against T1, Tyrosinase (Agaricus bisporus, UniProt O42713).
T1 sequence (O42713 whole entry): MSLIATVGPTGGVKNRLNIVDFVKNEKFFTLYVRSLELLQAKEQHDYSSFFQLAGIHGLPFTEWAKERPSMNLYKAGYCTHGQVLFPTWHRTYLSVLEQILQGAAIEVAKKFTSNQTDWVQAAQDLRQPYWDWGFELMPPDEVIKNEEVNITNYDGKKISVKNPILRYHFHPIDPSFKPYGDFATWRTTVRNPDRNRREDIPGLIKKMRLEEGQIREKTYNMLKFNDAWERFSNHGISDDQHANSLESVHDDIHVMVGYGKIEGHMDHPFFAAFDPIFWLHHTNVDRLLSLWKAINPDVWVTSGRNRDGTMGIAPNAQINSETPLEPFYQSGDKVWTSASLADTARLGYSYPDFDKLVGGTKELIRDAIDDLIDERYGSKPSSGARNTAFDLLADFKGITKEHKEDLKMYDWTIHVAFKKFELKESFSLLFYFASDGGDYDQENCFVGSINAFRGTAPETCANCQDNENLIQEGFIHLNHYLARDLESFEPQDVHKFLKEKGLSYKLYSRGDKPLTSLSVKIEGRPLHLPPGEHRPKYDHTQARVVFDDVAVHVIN
Description: Inhibition of mashroom tyrosinase

Structure (SMILES) | IC50
CC(=O)N1CCC(N2CCCCC2)CC1 | 29.9 µM
Cc1ccc(CN2CCC(N3CCCCC3)CC2)cc1 | 1.72 µM
O=[N+]([O-])c1ccc(S(=O)(=O)N2CCC(N3CCCCC3)CC2)cc1 | 111 µM
c1ccc(OCCCN2CCC(N3CCCCC3)CC2)cc1 | 19.5 µM
C1CCN(C2CCNCC2)CC1 [[1,4']Bipiperidinyl] | 111 µM
